Patent US12391737B2, “Soluble NPY2 receptor agonists” (Boehringer Ingelheim International GmbH, priority 2020, dated 2025)
*1 amine or outer side, *2 acyl side, *3 side chain or, on linkers, in order; H or OH if unused. Where a SMILES comes first, the peptide text is derived from it. Side-chain parts run from the residue outwards. The star is where a group is joined. C18 diacid = O=C(O)CCCCCCCCCCCCCCCCC(=O)*; γGlu = O=C(O)[C@H](CCC(=O)[*:2])N[*:1]; Isovaleryl = CC(C)CC(=O)*; Ahx = NCCCCCC(=O)O

What was measured:
[1] = target: T1, Human Neuropeptide Y2 Receptor (Homo sapiens, UniProt P49146); assay: Radioligand binding competition assay (RLB); conditions: Table 3, 125I-PYY(1-36) competition; read-out: Ki
T1 construct: purchased CHEMICON HTS066M
T1 sequence (P49146 1-381): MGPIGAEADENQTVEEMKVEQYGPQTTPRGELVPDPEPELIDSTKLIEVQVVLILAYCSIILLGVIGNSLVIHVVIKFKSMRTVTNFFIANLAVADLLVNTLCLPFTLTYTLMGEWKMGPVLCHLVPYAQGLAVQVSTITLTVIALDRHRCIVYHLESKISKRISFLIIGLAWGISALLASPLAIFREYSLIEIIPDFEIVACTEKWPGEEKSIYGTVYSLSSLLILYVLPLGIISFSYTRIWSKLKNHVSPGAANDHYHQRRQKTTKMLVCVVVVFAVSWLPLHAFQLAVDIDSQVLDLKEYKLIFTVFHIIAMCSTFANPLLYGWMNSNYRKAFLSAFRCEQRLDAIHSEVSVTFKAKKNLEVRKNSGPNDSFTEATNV
Outline: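 Receptor membranes, 0.5 μg/well; buffer 50 mM HEPES/5 mM MgCl2/1 mM CaCl2/0.2% ovalbumin, pH 7.4; 2 h RT, shaking. GF/C filtration, cold HEPES/500 mM NaCl wash, scintillation count. IC50 by nonlinear regression.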

Solubility determination = conditions: for Sol6: pH 6; for Sol7: pH 7
Outline: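 Shake-flask style: 10 mg/ml peptide (TFA salt), 0.1 M sodium diphosphate pH 6.4/7.0, 600 rpm, 2 h, RT; filter; dilute 1 mg/ml in 50% MeCN; RP-UPLC, 0–100% B over 2 min, 50 °C. Solubility = sample/control area ratio. Final pH recorded.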

Structure (SMILES)	Ki [1] [nM]	Sol6 (Solubility determination) [mg/mL]	Sol7 (Solubility determination) [mg/mL]
CC[C@H](C)[C@H](NC(=O)[C@H](CCC(=O)O)NC(=O)[C@H](CCC(=O)O)NC(=O)[C@@H]1CCCN1C(=O)[C@H](CO)NC(=O)[C@H](C)NC(=O)[C@H](CC(=O)O)NC(=O)[C@H](C)NC(=O)[C@@H]1CCCN1C(=O)[C@@H]1CCCN1C(=O)[C@H](CCCCNC(=O)CCCCCNC(=O)CC[C@H](NC(=O)CCCCCCCCCCCCCCCCC(=O)O)C(=O)O)NC(=O)[C@H](CCC(=O)O)NC(=O)[C@@H]1CCCN1C(=O)[C@H](C)NC(=O)CC(C)C)C(=O)N[C@@H](CCC(N)=O)C(=O)N[C@@H](CCCNC(=N)N)C(=O)N[C@@H](Cc1ccc(O)cc1)C(=O)N[C@@H](Cc1ccc(O)cc1)C(=O)N[C@H](C(=O)N[C@@H](CO)C(=O)N[C@@H](CC(C)C)C(=O)N[C@@H](CCCNC(=N)N)C(=O)N[C@@H](Cc1c[nH]cn1)C(=O)N[C@@H](Cc1ccc(O)cc1)C(=O)N[C@@H](Cc1ccc(O)cc1)C(=O)N[C@@H](CC(N)=O)C(=O)N[C@@H](Cc1c[nH]c2ccccc12)C(=O)N[C@@H](CC(C)C)C(=O)N[C@H](C(=O)N[C@@H](CCCNC(=N)N)C(=O)N[C@@H](CCC(N)=O)C(=O)N[C@@H](CCCNC(=N)N)C(=O)N[C@@H](Cc1ccc(O)cc1)C(N)=O)[C@@H](C)O)C(C)C [Compound 61, N{alpha-4}-(3-methylbutanoyl)-N{epsilon-7}-(6-[(4S)-4-carboxy-4-(17-carboxyheptadecanamido)butanamido]hexanoyl)-[4A,7K,9P,10A,17I,18Q,22V,28Y,30W,31L]-hPYY(4-36)]	0.41	0.1	8.9
CC(C)CC(=O)N[C@@H](C)C(=O)N1CCC[C@H]1C(=O)N[C@@H](C)C(=O)N[C@@H](CCCCNC(=O)CCCCCNC(=O)CC[C@H](NC(=O)CCCCCCCCCCCCCCCCC(=O)O)C(=O)O)C(=O)N1CCC[C@H]1C(=O)N1CCC[C@H]1C(=O)N[C@@H](CCC(=O)O)C(=O)N[C@@H](CC(=O)O)C(=O)N[C@@H](C)C(=O)N[C@@H](CO)C(=O)N1CCC[C@H]1C(=O)N[C@@H](CCC(=O)O)C(=O)N[C@@H](CCC(=O)O)C(=O)N[C@@H](CC(C)C)C(=O)N[C@@H](CCC(N)=O)C(=O)N[C@@H](CCCNC(=N)N)C(=O)N[C@@H](Cc1ccc(O)cc1)C(=O)N[C@@H](Cc1ccc(O)cc1)C(=O)N[C@H](C(=O)N[C@@H](CCC(=O)O)C(=O)N[C@@H](CC(C)C)C(=O)N[C@@H](CCCNC(=N)N)C(=O)N[C@@H](Cc1c[nH]cn1)C(=O)N[C@@H](Cc1ccc(O)cc1)C(=O)N[C@@H](Cc1ccc(O)cc1)C(=O)N[C@@H](CC(N)=O)C(=O)N[C@@H](Cc1c[nH]c2ccccc12)C(=O)N[C@@H](CC(C)C)C(=O)N[C@H](C(=O)N[C@@H](CCCNC(=N)N)C(=O)N[C@@H](CCC(N)=O)C(=O)N[C@@H](CCCNC(=N)N)C(=O)N[C@@H](Cc1ccc(O)cc1)C(N)=O)[C@@H](C)O)C(C)C [Compound 62, N{alpha-4}-(3-methylbutanoyl)-N{epsilon-7}-(6-[(4S)-4-carboxy-4-(17-carboxyheptadecanamido)butanamido]hexanoyl)-[4A,6A,7K,9P,18Q,22V,23E,28Y,30W,31L]-hPYY(4-36)]	1.44	8.8	9.3
CC[C@H](C)[C@H](NC(=O)[C@H](Cc1ccc(O)cc1)NC(=O)[C@H](Cc1ccc(O)cc1)NC(=O)[C@H](CCCNC(=N)N)NC(=O)[C@H](CCC(N)=O)NC(=O)[C@H](CC(C)C)NC(=O)[C@H](CCC(=O)O)NC(=O)[C@H](CCC(=O)O)NC(=O)[C@@H]1CCCN1C(=O)[C@@H](NC(=O)[C@H](C)NC(=O)[C@H](CC(=O)O)NC(=O)[C@H](CCC(=O)O)NC(=O)[C@H](CCC(=O)O)NC(=O)[C@@H]1CCCN1C(=O)[C@H](CCCCNC(=O)CCCCCNC(=O)CC[C@H](NC(=O)CCCCCCCCCCCCCCCCC(=O)O)C(=O)O)NC(=O)[C@H](CCC(=O)O)NC(=O)[C@@H]1CCCN1C(=O)[C@H](C)NC(=O)CC(C)C)[C@@H](C)O)C(=O)N[C@@H](CO)C(=O)N[C@@H](CC(C)C)C(=O)N[C@@H](CCCNC(=N)N)C(=O)N[C@@H](Cc1c[nH]cn1)C(=O)N[C@@H](Cc1ccc(O)cc1)C(=O)N[C@@H](Cc1ccc(O)cc1)C(=O)N[C@@H](CC(N)=O)C(=O)N[C@@H](Cc1c[nH]c2ccccc12)C(=O)N[C@@H](CC(C)C)C(=O)N[C@H](C(=O)N[C@@H](CCCNC(=N)N)C(=O)N[C@@H](CCC(N)=O)C(=O)N[C@@H](CCCNC(=N)N)C(=O)N[C@@H](Cc1ccc(O)cc1)C(N)=O)[C@@H](C)O [Compound 66, N{alpha-4}-(3-methylbutanoyl)-N{epsilon-7}-(6-[(4S)-4-carboxy-4-(17-carboxyheptadecanamido)butanamido]hexanoyl)-[4A,7K,9E,13T,18Q,22I,28Y,30W,31L]-hPYY(4-36)]	2.33	9.2	9.2
CC(C)CC(=O)N[C@@H](C)C(=O)N1CCC[C@H]1C(=O)N[C@@H](CCC(=O)O)C(=O)N[C@@H](CCCCNC(=O)CCCCCNC(=O)CC[C@H](NC(=O)CCCCCCCCCCCCCCCCC(=O)O)C(=O)O)C(=O)N1CCC[C@H]1C(=O)N[C@@H](CCC(=O)O)C(=O)N[C@@H](CCC(=O)O)C(=O)N[C@@H](CC(=O)O)C(=O)N[C@@H](C)C(=O)N[C@@H](CCC(=O)O)C(=O)N1CCC[C@H]1C(=O)N[C@@H](CCC(=O)O)C(=O)N[C@@H](CCC(=O)O)C(=O)N[C@@H](CC(C)C)C(=O)N[C@@H](CCC(N)=O)C(=O)N[C@@H](CCCNC(=N)N)C(=O)N[C@@H](Cc1ccc(O)cc1)C(=O)N[C@@H](Cc1ccc(O)cc1)C(=O)N[C@H](C(=O)N[C@@H](CO)C(=O)N[C@@H](CC(C)C)C(=O)N[C@@H](CCCNC(=N)N)C(=O)N[C@@H](Cc1c[nH]cn1)C(=O)N[C@@H](Cc1ccc(O)cc1)C(=O)N[C@@H](Cc1ccc(O)cc1)C(=O)N[C@@H](CCC(N)=O)C(=O)N[C@@H](Cc1c[nH]c2ccccc12)C(=O)N[C@@H](CC(C)C)C(=O)N[C@H](C(=O)N[C@@H](CCCNC(=N)N)C(=O)N[C@@H](CCC(N)=O)C(=O)N[C@@H](CCCNC(=N)N)C(=O)N[C@@H](Cc1ccc(O)cc1)C(N)=O)[C@@H](C)O)C(C)C [Compound 68, N{alpha-4}-(3-methylbutanoyl)-N{epsilon-7}-(6-[(4S)-4-carboxy-4-(17-carboxyheptadecanamido)butanamido]hexanoyl)-[4A,7K,9E,13E,18Q,22V,28Y,29Q,30W,31L]-hPYY(4-36)]	9.07	9.9	10.0
CC(C)CC(=O)N[C@@H](C)C(=O)N1CCC[C@H]1C(=O)N[C@@H](CCC(=O)O)C(=O)N[C@@H](CCCCNC(=O)CCCCCNC(=O)CC[C@H](NC(=O)CCCCCCCCCCCCCCCCC(=O)O)C(=O)O)C(=O)N1CCC[C@H]1C(=O)N1CCC[C@H]1C(=O)N[C@@H](C)C(=O)N[C@@H](CC(=O)O)C(=O)N[C@@H](C)C(=O)N[C@@H](CO)C(=O)N1CCC[C@H]1C(=O)N[C@@H](CCC(=O)O)C(=O)N[C@@H](CCC(=O)O)C(=O)N[C@H](C(=O)N[C@@H](CCC(N)=O)C(=O)N[C@@H](CCCNC(=N)N)C(=O)N[C@@H](Cc1ccc(O)cc1)C(=O)N[C@@H](Cc1ccc(O)cc1)C(=O)N[C@H](C(=O)N[C@@H](CO)C(=O)N[C@@H](CC(C)C)C(=O)N[C@@H](CCCNC(=N)N)C(=O)N[C@@H](Cc1c[nH]cn1)C(=O)N[C@@H](Cc1ccc(O)cc1)C(=O)N[C@@H](Cc1ccc(O)cc1)C(=O)N[C@@H](CC(N)=O)C(=O)N[C@@H](Cc1c[nH]c2ccccc12)C(=O)N[C@@H](CC(C)C)C(=O)N[C@H](C(=O)N[C@@H](CCCNC(=N)N)C(=O)N[C@@H](CCC(N)=O)C(=O)N[C@@H](CCCNC(=N)N)C(=O)N[C@@H](Cc1ccc(O)cc1)C(N)=O)[C@@H](C)O)C(C)C)[C@@H](C)O [Compound 69, N{alpha-4}-(3-methylbutanoyl)-N{epsilon-7}-(6-[(4S)-4-carboxy-4-(17-carboxyheptadecanamido)butanamido]hexanoyl)-[4A,7K,9P,10A,17T,18Q,22V,28Y,30W,31L]-hPYY(4-36)] (Isovaleryl-APEK([Ahx-γGlu-C18 diacid])PPADASPEETQRYYVSLRHYYNWLTRQRY-NH2)	0.54	0.1	9.5
CC(C)CC(=O)N[C@@H](C)C(=O)N1CCC[C@H]1C(=O)N[C@@H](CCC(=O)O)C(=O)N[C@@H](CCCCNC(=O)CCCCCNC(=O)CC[C@H](NC(=O)CCCCCCCCCCCCCCCCC(=O)O)C(=O)O)C(=O)N1CCC[C@H]1C(=O)N[C@@H](CCC(=O)O)C(=O)N[C@@H](CCC(=O)O)C(=O)N[C@@H](C)C(=O)N[C@@H](C)C(=O)N[C@@H](CO)C(=O)N1CCC[C@H]1C(=O)N[C@@H](CCC(=O)O)C(=O)N[C@@H](CCC(=O)O)C(=O)N[C@@H](CC(C)C)C(=O)N[C@@H](CCC(N)=O)C(=O)N[C@@H](CCCNC(=N)N)C(=O)N[C@@H](Cc1ccc(O)cc1)C(=O)N[C@@H](Cc1ccc(O)cc1)C(=O)N[C@H](C(=O)N[C@@H](C)C(=O)N[C@@H](CC(C)C)C(=O)N[C@@H](CCCNC(=N)N)C(=O)N[C@@H](Cc1c[nH]cn1)C(=O)N[C@@H](Cc1ccc(O)cc1)C(=O)N[C@@H](Cc1ccc(O)cc1)C(=O)N[C@@H](CC(N)=O)C(=O)N[C@@H](Cc1c[nH]c2ccccc12)C(=O)N[C@@H](CC(C)C)C(=O)N[C@H](C(=O)N[C@@H](CCCNC(=N)N)C(=O)N[C@@H](CCC(N)=O)C(=O)N[C@@H](CCCNC(=N)N)C(=O)N[C@@H](Cc1ccc(O)cc1)C(N)=O)[C@@H](C)O)C(C)C [Compound 73, N{alpha-4}-(3-methylbutanoyl)-N{epsilon-7}-(6-[(4S)-4-carboxy-4-(17-carboxyheptadecanamido)butanamido]hexanoyl)-[4A,7K,9E,11A,18Q,22V,23A,28Y,30W,31L]-hPYY(4-36)]	2.16	8.6	8.2
